Results published in paper PMC6784447, “Evaluation of 3-Chlorobenzoate 1,2-Dioxygenase Inhibition by 2- and 4-Chlorobenzoate with a Cell-Based Technique” (Biosensors, 2019).

Tested on: T1, 3-chlorobenzoate-1,2-dioxygenase (3-CBDO; 3-CBA-1,2-DO)
T1 construct: native enzyme, not purified, in intact freshly harvested 3-CBA-grown cells; component and subunit make-up printed only for the analogous benzoate 1,2-dioxygenase; with 3-chlorobenzoate 1,2-dioxygenase subunit beta (benzoate 1,2-dioxygenase small subunit-like); 3-chlorobenzoate 1,2-dioxygenase reductase component (benzoate 1,2-dioxygenase reductase-like)
Assay: respiration of intact cells, Clark oxygen electrode reactor biosensor; Hill fit
Assay type: cell-based, Rhodococcus opacus
Conditions: 50 mM Tris-HCl pH 8.0, air-saturated, room temperature; intact 3-CBA-grown cells (indirect estimate of enzyme activity); Hill n 2.36; no added inhibitor; read-out: S0.5

**Q.** Which Km does the source give for `O=C(O)c1cccc(Cl)c1` [3-chlorobenzoate] here?
**A.** Its Km is 45.3 ± 6.3 µM.
